Results from patent publication US7528132B2, “Kinase inhibitors” (Schering Corporation, priority 2005, dated 2009).

biological target: T1, Akt1 (Homo sapiens, UniProt P31749); assay: Akt1 kinase assay (33P phosphorylation of biotinylated peptide, Flash plates); format: biochemical; conditions: read-out: IC50 (AKT1 inhibition)
T1 construct: made in house; host or cells: Sf9 insect cells (baculovirus, pBlueBacHis2B)
From the text: The assay described below measures the phosphorylation of a biotinylated peptide by active recombinant Akt1 and other kinase isoforms. The biotinylated peptide contains a consensus sequence derived from Akt substrate Gsk3 (Glycogen synthase kinase 3). The ^33P-labeled peptide substrate was captured by streptavidin-coated Flash plates.
Active recombinant Akt1 was expressed in Sf9 insect cells and purified as described by Kumar et al., Biochim. Biophys. Acta. Jun. 15, 2001, 1526(3), 257-268. Biotinylated peptide of the sequence Bio-ahx-RPRAASF was purchased from Syn Pep (Dublin, Calif., USA).
Cloning and Expression of Human Akt1 Sf9 Cells
Human Akt1 cDNA was amplified from a marathon-ready human lung cDNA library (Clonetech) using nested oligo primers as described below. The first round of amplification was carried out using the following primers; Akt1F1 ([…]) and Akt1R1 (TCCATC […]) and for the second round amplification, the primers of the following sequence were used; Akt1F2 (GGATCCTCGG […]) and AKT1R2 (GGTACCATCGTC […]). The PCR product was subcloned into pCRScript plasmid as a BamHI/KpnI fragment and the sequence of the cDNA was confirmed by DNA sequencing. This plasmid was used as a template for reamplification of Akt1 using appropriate primers for subcloning into pBlueBaHis2B into BamH1/EcoRI sites to generate an in frame fusion to (His)6 tag and an anti-Xpress antibody epitope tag at the N-terminus. This construct was sequenced to verify the junction sequences and used for generating a recombinant baculovirus. Growth of the recombinant virus, amplification and determination of viral titer were carried out according to the instructions from the manufacturer (InVitrogen, CA).
Purification of Akt1 from Sf9 Cells
Viral stocks were used to infect large scale Sf9 cells at a multiplicity of infection (MOI) of 2.5. Cells were maintained at 27° C. for 60 h and okadaic acid was added to the cultures to a concentration of 50 nM. Cells were harvested 4 h hours later by centrifugation at 1200 rpm for 30 min followed by freezing at −80° C. until further use. All purification steps were carried out at 4° C. Whole cell pellets were suspended in buffer A (20 mM sodium phosphate buffer pH 7.8, 500 mM NaCl, 1 mM sodium vanadate, 5 mM sodium fluoride, 40 mM β-glycerophosphate, 10 mM imidazole and protease inhibitor cocktail) and lysed using a microfluidizer. The cell extract was centrifuged at 16,000×g for 10 min to remove the debris and directly loaded onto Ni-NTA Superflow resin using a FPLC pump operated at 1 ml/min. The column was washed once with buffer A, once with wash buffer B (20 mM sodium phosphate pH 6.0, 1 mM sodium vanadate, 5 mM sodium fluoride and protease cocktail) and once with wash buffer B containing 0.05% Tween-20 followed by washing with buffer A until OD260 returned to basal level. Proteins were eluted with buffer A containing 200 mM imidazole. Fractions were analyzed by electrophoresis on 10% denaturing polyacrylamide gels and fractions containing 85% pure protein band at 60 KDa were pooled and dialyzed against buffer C (20 mM Tris-HCl pH 7.5, 0.5 mM EDTA,-2 mM DTT, 145 mM NaCl, 0.1 mM sodium vanadate, 5 mM sodium fluoride, 10 mM, β-glycerophosphate and 20% glycerol). Purified protein was stored as aliquots at −80° C. Protein concentrations were determined using BCA protein assay reagent A (Catalog #23228). To examine the identity of the proteins, 2 μg of purified protein was electrophoresed on SDS-polyacrylamide gels and stained with coomassie blue dye or transferred to nitrocellulose membrane and probed with anti-Akt and anti-phospho-specific Akt antibodies using enhanced chemiluminescence (ECL) reagent according to the protocol described by the manufacturer (Amersham).
The kinase assay was performed in 96 well plates at room temperature. Assay solutions and plates were preincubated at room temperature for 5 min. […]

T1 sequence (P31749 whole entry): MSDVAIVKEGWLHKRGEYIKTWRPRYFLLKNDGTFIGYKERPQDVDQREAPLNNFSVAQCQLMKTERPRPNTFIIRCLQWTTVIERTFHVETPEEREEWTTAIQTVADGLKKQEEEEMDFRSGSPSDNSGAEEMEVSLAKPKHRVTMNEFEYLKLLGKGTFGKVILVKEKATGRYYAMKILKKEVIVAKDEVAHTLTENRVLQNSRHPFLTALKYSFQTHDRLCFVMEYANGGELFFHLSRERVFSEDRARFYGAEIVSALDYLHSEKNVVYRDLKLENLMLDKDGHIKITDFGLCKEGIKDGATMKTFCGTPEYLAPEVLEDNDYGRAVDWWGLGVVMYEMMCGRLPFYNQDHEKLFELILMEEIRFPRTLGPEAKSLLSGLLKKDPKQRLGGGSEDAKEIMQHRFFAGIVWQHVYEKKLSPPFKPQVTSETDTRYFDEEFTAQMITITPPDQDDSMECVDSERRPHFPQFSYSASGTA

| Compound | IC50 [nM] |
| --- | --- |
| Cc1n[nH]c2ccc(-c3nnc(CCc4ccccc4)c(N4CCN[C@@H](C(C)C)C4)n3)cc12 [Compound 93, 5-[(S)-3-isopropylpiperazin-1-yl]-3-(3-methylindazol-5-yl)-6-phenethyl-[1,2,4]triazine] | 1.36 |

same assay, conditions: read-out: IC50 rating (AKT1 inhibition)

| Compound | IC50 [nM] |
| --- | --- |
| Cc1n[nH]c2ccc(-c3nncc(N4CCC(Cc5ccccc5)C4)n3)cc12 (stereo not drawn) [Compound 69, 3-(3-methylindazol-5-yl)-5-(3-benzylpyrrolidin-1-yl)-[1,2,4]triazine] | 100 to 1000 |
| c1ccc(C[C@H]2CN(c3cnnc(-c4ccc5[nH]nc(-c6ccccc6)c5c4)n3)CCN2)cc1 [Compound 70, 5-[(S)-3-benzylpiperazin-1-yl]-3-(3-phenylindazol-5-yl)-[1,2,4]triazine] | > 1000 |
| c1ccc(-c2n[nH]c3ccc(-c4nncc(N5CCNCC5)n4)cc23)cc1 [Compound 71, 3-(3-phenylindazol-5-yl)-5-piperazin-1-yl-[1,2,4]triazine] | 100 to 1000 |
| CC(C)C[C@H]1CN(c2cnnc(-c3ccc4[nH]nc(-c5ccccc5)c4c3)n2)CCN1 [Compound 72, 5-[(S)-3-isobutylpiperazin-1-yl]-3-(3-phenylindazol-5-yl)-[1,2,4]triazine] | > 1000 |
| Cc1n[nH]c2ccc(-c3nncc(N4CCN[C@@H](C(C)(C)C)C4)n3)cc12 [Compound 73, 3-(3-methylindazol-5-yl)-5-[(S)-3-tert-butylpiperazin-1-yl]-[1,2,4]triazine] | 100 to 1000 |
| Cc1ccccc1CC1CN(c2cnnc(-c3ccc4[nH]ncc4c3)n2)CCN1 (stereo not drawn) [Compound 74, 3-indazol-5-yl-5-[3-(2-methylbenzyl)piperazin-1-yl]-[1,2,4]triazine] | 100 to 1000 |
| c1cc2[nH]nc(C3CC3)c2cc1-c1nncc(N2CCNCC2)n1 [Compound 75, 3-(3-cyclopropylindazol-5-yl)-5-piperazin-1-yl-[1,2,4]triazine] | > 1000 |
| CC(C)C[C@H]1CN(c2cnnc(-c3ccc4[nH]nc(C5CC5)c4c3)n2)CCN1 [Compound 76, 3-(3-cyclopropylindazol-5-yl)-5-[(S)-3-isobutylpiperazin-1-yl]-[1,2,4]triazine] | 100 to 1000 |
| c1ccc(C[C@H]2CN(c3cnnc(-c4ccc5[nH]nc(C6CC6)c5c4)n3)CCN2)cc1 [Compound 77, 5-[(S)-3-benzylpiperazin-1-yl]-3-(3-cyclopropylindazol-5-yl)-[1,2,4]triazine] | 100 to 1000 |
| CCc1n[nH]c2ccc(-c3nncc(N4CCNCC4)n3)cc12 [Compound 78, 3-(3-ethylindazol-5-yl)-5-piperazin-1-yl-[1,2,4]triazine] | > 1000 |
| CCc1n[nH]c2ccc(-c3nncc(N4CCN[C@@H](CC(C)C)C4)n3)cc12 [Compound 79, 3-(3-ethylindazol-5-yl)-5-[(S)-3-isobutylpiperazin-1-yl]-[1,2,4]triazine] | 100 to 1000 |
| CCc1n[nH]c2ccc(-c3nncc(N4CCN[C@@H](Cc5ccccc5)C4)n3)cc12 [Compound 80, 5-[(S)-3-benzylpiperazin-1-yl]-3-(3-ethylindazol-5-yl)-[1,2,4]triazine] | < 100 |
| Cc1n[nH]c2ccc(-c3nnc(N)c(N4CCN[C@@H](C(C)(C)C)C4)n3)cc12 [Compound 81, 6-amino-3-(3-methylindazol-5-yl)-5-[(S)-3-tert-butylpiperazin-1-yl]-[1,2,4]triazine] | < 100 |
| Cc1n[nH]c2ccc(-c3nnc(N)c(N4CCNC5(CCCCC5)C4)n3)cc12 [Compound 82, 6-amino-5-(1,4-diaza-spiro[5.5]undec-4-yl)-3-(3-methylindazol-5-yl)-[1,2,4]triazine] | 100 to 1000 |
| Cc1n[nH]c2ccc(-c3nnc(N)c(N4CCC(N)C4)n3)cc12 (stereo not drawn) [Compound 83, 6-amino-5-(3-aminopyrrolidin-1-yl)-3-(3-methylindazol-5-yl)-[1,2,4]triazine] | 100 to 1000 |
| CNC1CCN(c2nc(-c3ccc4[nH]nc(C)c4c3)nnc2N)C1 (stereo not drawn) [Compound 84, 6-amino-5-(3-methylaminopyrrolidin-1-yl)-3-(3-methylindazol-5-yl)-[1,2,4]triazine] | 100 to 1000 |
| Cc1n[nH]c2ccc(-c3nnc(N)c(N4CCNC5(CCCC5)C4)n3)cc12 [Compound 85, 6-amino-5-(6,9-diaza-spiro[4.5]dec-9-yl)-3-(3-methylindazol-5-yl)-[1,2,4]triazine] | 100 to 1000 |
| Cc1n[nH]c2ccc(-c3nnc(CCc4ccccc4)c(N4CCNCC4)n3)cc12 [Compound 92, 3-(3-methylindazol-5-yl)-6-phenethyl-5-(piperazin-1-yl)-[1,2,4]triazine] | < 100 |
| Cc1n[nH]c2ccc(-c3nnc(CCc4ccccc4)c(N4CCN[C@@H](C(C)C)C4)n3)cc12 [Compound 93, 5-[(S)-3-isopropylpiperazin-1-yl]-3-(3-methylindazol-5-yl)-6-phenethyl-[1,2,4]triazine] | < 100 |
| CCC[C@H]1CN(c2nc(-c3ccc4[nH]nc(C)c4c3)nnc2CCc2ccccc2)CCN1 [Compound 94, 3-(3-methylindazol-5-yl)-6-phenethyl-5-[(S)-3-propylpiperazin-1-yl]-[1,2,4]triazine] | < 100 |
